Data: patent EP0338042B1, “COMPOSITION AND METHOD FOR TREATING HEPATITIS VIRUS INFECTIONS USING 1-(2'-DEOXY-2'-FLUORO-BETA-D-ARABINOFURANOSYL)-5-ETHYLURACIL” (priority 1987, dated 1989)
≈ marks a conversion by molar mass, not a printed value. Like-named read-outs stand apart in the source and are kept apart here.

Experiments:
[1] = tested on: woodchuck hepatitis virus (WHV); assay: Inhibition of WHV replication in chronically infected woodchucks (DNA polymerase activity); type: in vivo, woodchucks (Marmota monax); details: for WHV DNA polymerase levels / WHV DNA polymerase levels after cessation of drug administration: other antivirals, dose not given; for virus replication levels: dosages similar to FMAU (2-4 mg/kg per day); for virus replication levels after cessation of treatment: dosages similar to FMAU, soon after cessation
Description: All woodchucks bearing chronic active hepatitis virus (Hantz, supra) were administered FMAU twice daily by interperitoneal injections of FMAU in the following dosages:
Studies were then undertaken to evaluate FMAU and FEAU in this animal model using woodchucks naturally chronically-infected with woodchuck hepatitis virus (24). It was assumed that these nucleosides would be anabolized to their nucleoside triphosphates within the animal. WHV replication was measured periodically by the endogenous DNA polymerase activity and by the detection of WHV DNA by the dot-blot hybridization assay. Three different dosages of FMAU and FEAU were investigated. FMAU at 2 mg/kg/day x 5, (given intraperitoneally TABLE VIII
In accordance with the procedures of Example 2, the FEAU inhibition of WHV replication was further studied at different doses administered orally to woodchucks through stomach tubes. Two groups of woodchucks with different initial WHV replication values were examined.
Seven woodchucks with high WHV replication were tested. High replication was defined as over 1000 counts per minute of DNA polymerase activity, and the mean replication was 1600.
Seven woodchucks with low WHV replication were tested. Low replication was defined as lower than 1000 counts per minute of DNA polymerase activity, and the mean replication was 600-800.

HBV DNA polymerase [2] = molecular target: T1, HBV DNA polymerase (Hepatitis B virus genotype D subtype ayw, UniProt P03156); assay: Time course of DNA synthesis with triphosphate analogs in place of the natural substrate; type: biochemical; details: for DNA synthesis with analog substituted for the natural substrate: ara-TTP for dTTP, ara-CTP for dCTP, ACVTP for dGTP; for HBV DNA synthesis after addition of the normal substrate: reaction started with analog instead of normal substrate (ACVTP 5 µM), normal substrate (100 µM dGTP) added after 120 minutes
T1 construct: from tissue; host or cells: serum of an immunosuppressed, HBsAg-positive patient; virions purified on sucrose and CsCl gradients
Description: (§1) DNA polymerase was assayed as described by Kaplan et al., J. Virol. 12: 995 (1973) with minor modification. The assay was performed in a 50 µl reaction mixture containing 50 mM Tris-HCl pH 7.5, 40 mM MgCl₂, 60 mM NH₄Cl, 100 µM each dATP, dCTP and dGTP, 0.2-0.7 µM [³H] dTTP (30 Ci/mmol), 10 mM 2-mercaptoethanol, 0.5% Nonidet P-40 and enzyme. The reaction was started by addition of the virus particles with 2-mercaptoethanol and Nonidet P 40. Incubation was at 37°C for 1 hour. Acid insoluble radioactive material was collected on a glass fiber filter (GF/C Whatman). Filters were washed 5 times with cold 5% trichloracetic acid containing 10 mM sodium pyrophosphate, then with 95% ethanol. Radioactivity of the dried filter was measured in a liquid scintillation counter.
To determine the effect of the three analogs on viral DNA synthesis, a time course experiment was performed with HBV DNA polymerase. [³H] dATP was used as the labeled substrate. With all four nucleoside triphosphate substrates, the reaction was linear up to 60 mn. […] The substitution of dTTP by BVdUTP permitted the viral DNA synthesis up to 46% of the control after 3 hours of reaction. This value increased to 67% of the optimal activity after 4 h of reaction.
BVdUTP was the most efficient alternate substrate for both enzymes. The DNA synthesized with BVdUTP as alternate substrate was analyzed by agarose gel electrophoresis. Only incomplete filling of the single-stranded region of HBV or WHV DNA was obtained with BVdUTP.
The effect of ACVTP on HBV DNA synthesis was also studied in a time course experiment. [³H] dTTP was the labeled substrate. The reaction was initiated without dGTP or with 5 µm ACVTP instead of dGTP. Under these conditions, no incorporation of [³H] dTMP could be measured. After 120 minutes of reaction, 100 µM of dGTP was added. In the assay without dGTP only, the addition of dGTP increased DNA synthesis as expected. […] By comparison, when the reaction was started with the same proportion of ACVTP (5 µM) and dGTP (100 µM) a significant DNA synthesis was observed. Similar experiments were carried out with ara-ATP and ara-CTP.

HBV DNA polymerase [3] = molecular target: T1, HBV DNA polymerase; assay: DNA polymerase assay with purified virus particles; type: biochemical; details: for nature of inhibition (Lineweaver-Burk plots): ACVTP, FIACTP, BVdUTP versus dGTP, dCTP, dTTP respectively, similar for WHV DNA polymerase; for IC50: concentration of inhibitor giving a 50% inhibition of DNA polymerase activity, read-out: ID₅₀ HBV DNA POLYMERASE; for ID₅₀ compared with FIACTP (times more): stated for HBV and WHV DNA polymerases; for relative efficiency as inhibitor of HBV DNA polymerase: excess of nucleotides, similar results with WHV DNA polymerase
Description: (§2) HBV particles containing DNA polymerase activity were purified from the serum of an immunosuppressed patient, positive for HBsAG. WHV was obtained from a serum pool of five woodchucks (Marmota monax), chronic carriers of the virus. The woodchucks initially imported from Pennsylvania belonged to a colony followed for over one year by serological tests as reported in Hantz et al., J. Virol. Metho. 7: 45-55 (1983). Virus was purified by centrifugation on sucrose and isopycnic CsCl gradients.
as §1
(§3) The relative sensitivities of both enzymes to ACVTP, FIACTP and BVdUTP were compared using an excess of nucleotides. For each inhibitor, the concentration of the corresponding radioactive triphosphate was maintained at 2 to 3 times the Km value while the remaining nucleotides were in great excess (50 µM).

WHV DNA polymerase = molecular target: T2, WHV DNA polymerase (Woodchuck hepatitis B virus, UniProt P03160); assay: DNA polymerase assay with purified virus particles; type: biochemical; details: read-out: ID₅₀ WHV DNA POLYMERASE
T2 construct: The reaction was started by addition of the virus particles with 2-mercaptoethanol and Nonidet P 40; from tissue; host or cells: serum pool of five chronically infected woodchucks (Marmota monax); virions purified on sucrose and CsCl gradients
Description: as §2, §1, §3

HSV-2 (STRAIN G) = details: cited from earlier work; for MDD: twice a day for 4 days from 5 hr after inoculation, calculated on day 21; for % SURVIVORS: twice a day for 4 days; for %WT GAIN ON DAY 7 / %WT GAIN ON DAY 14 / %WT GAIN ON DAY 21 / %WT GAIN ON DAY 30: compared to day 1
physchem = assay: physchem
Description: Ongoing testing of woodchucks bearing hepatitis virus is being conducted with the following additional pyrimidine nucleoside compounds: FIAC (2′-fluoro-2′-deoxy-arabinosyl-5-iodoocytosine) and FIAU (2′-fluoro-2′-deoxy-arabinosyl-5-iodouracil). As with FMAU, water is the preferred carrier.
If necessary, the solubility of the compounds FMAU, FIAC, and FIAU may be increased by adding acid or base to the aqueous solvent.

[4] = concentration of inhibitor giving a 50% inhibition of DNA polymerase activity

T2 sequence (P03160 whole entry): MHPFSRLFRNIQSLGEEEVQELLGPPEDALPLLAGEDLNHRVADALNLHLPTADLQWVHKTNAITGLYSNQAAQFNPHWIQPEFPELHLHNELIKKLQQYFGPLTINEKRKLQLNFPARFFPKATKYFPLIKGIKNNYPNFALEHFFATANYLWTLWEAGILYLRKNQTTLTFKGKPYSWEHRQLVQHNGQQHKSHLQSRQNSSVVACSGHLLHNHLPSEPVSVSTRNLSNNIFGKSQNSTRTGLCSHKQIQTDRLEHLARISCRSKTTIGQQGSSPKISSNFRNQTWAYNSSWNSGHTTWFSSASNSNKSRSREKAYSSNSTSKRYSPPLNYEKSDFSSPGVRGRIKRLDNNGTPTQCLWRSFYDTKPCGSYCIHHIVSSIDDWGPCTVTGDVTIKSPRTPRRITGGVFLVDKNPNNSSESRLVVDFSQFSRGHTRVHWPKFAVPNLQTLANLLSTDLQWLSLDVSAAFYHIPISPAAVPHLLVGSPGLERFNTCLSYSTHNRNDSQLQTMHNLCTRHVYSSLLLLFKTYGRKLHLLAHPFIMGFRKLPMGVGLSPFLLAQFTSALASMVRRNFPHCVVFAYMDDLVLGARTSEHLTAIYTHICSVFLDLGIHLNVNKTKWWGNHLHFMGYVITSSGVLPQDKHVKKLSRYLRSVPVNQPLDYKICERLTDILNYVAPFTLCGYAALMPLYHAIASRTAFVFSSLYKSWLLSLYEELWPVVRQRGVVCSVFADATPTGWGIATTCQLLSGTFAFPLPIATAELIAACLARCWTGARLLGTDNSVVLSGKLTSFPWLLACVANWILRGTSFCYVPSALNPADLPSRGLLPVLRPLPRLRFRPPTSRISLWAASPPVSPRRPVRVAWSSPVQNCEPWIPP
T1 sequence (P03156 whole entry): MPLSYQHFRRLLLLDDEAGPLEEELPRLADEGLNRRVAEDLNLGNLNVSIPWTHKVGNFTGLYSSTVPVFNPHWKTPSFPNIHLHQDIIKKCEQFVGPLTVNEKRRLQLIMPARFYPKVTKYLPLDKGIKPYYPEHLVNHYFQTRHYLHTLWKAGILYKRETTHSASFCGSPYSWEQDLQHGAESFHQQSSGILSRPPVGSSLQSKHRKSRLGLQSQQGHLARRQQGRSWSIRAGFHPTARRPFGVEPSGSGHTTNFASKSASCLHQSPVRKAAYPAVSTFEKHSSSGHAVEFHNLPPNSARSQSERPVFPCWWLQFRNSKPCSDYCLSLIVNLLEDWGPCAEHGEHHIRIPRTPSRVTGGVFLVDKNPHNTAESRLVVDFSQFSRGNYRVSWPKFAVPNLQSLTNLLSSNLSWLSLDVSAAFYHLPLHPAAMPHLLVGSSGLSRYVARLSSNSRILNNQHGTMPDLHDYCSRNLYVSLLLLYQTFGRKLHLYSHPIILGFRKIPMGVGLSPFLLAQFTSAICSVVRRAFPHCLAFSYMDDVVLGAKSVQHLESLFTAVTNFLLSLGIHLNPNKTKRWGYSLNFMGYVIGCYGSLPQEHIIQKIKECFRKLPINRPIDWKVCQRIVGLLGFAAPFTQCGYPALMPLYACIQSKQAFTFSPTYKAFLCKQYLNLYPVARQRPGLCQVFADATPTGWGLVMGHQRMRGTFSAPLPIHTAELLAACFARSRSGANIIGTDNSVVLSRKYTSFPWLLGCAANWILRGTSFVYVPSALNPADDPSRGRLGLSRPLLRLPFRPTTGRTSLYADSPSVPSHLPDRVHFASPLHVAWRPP

## Nc1ncc2ncn(COCCO)c2n1 [6-deoxy-acyclovir]
[1]
  WHV DNA polymerase levels: diminished
  WHV DNA polymerase levels after cessation of drug administration: rebounded to pretreatment levels

## Nc1nc2c(ncn2COCCOP(=O)(O)OP(=O)(O)OP(=O)(O)O)c(=O)[nH]1 [ACVTP]
HBV DNA polymerase [2]
  DNA synthesis with analog substituted for the natural substrate: did not increase the polymerization process
  HBV DNA synthesis after addition of the normal substrate: no DNA synthesis was observed
HBV DNA polymerase [3]
  nature of inhibition (Lineweaver-Burk plots): competitive
  IC50: 900 nM
  ID₅₀ compared with FIACTP (times more): 18 times
WHV DNA polymerase; [4]
  IC50: 700 nM

## O=c1[nH]c(=O)n([C@H]2C[C@H](O)[C@@H](COP(=O)(O)OP(=O)(O)OP(=O)(O)O)O2)cc1/C=C/Br [BVdUTP]
HBV DNA polymerase [3]
  nature of inhibition (Lineweaver-Burk plots): competitive
  IC50: 250 nM
  ID₅₀ compared with FIACTP (times more): 5 times
WHV DNA polymerase; [4]
  IC50: 300 nM

## Nc1nc2c(ncn2COC(CO)CO)c(=O)[nH]1 [DHPG]
[1]
  WHV DNA polymerase levels: diminished
  WHV DNA polymerase levels after cessation of drug administration: rebounded to pretreatment levels

## CCc1cn([C@H]2C[C@H](O)[C@@H](CO)O2)c(=O)[nH]c1=O [EDU, 5-ethyl-2′-deoxyuridine, reference compound]
HSV-2 (STRAIN G); EDU 800 MG/KG/DAY
  MDD: 7.6
  % SURVIVORS: 13%
  %WT GAIN ON DAY 7: -10%
  %WT GAIN ON DAY 14: -6%
  %WT GAIN ON DAY 21: 2%
  %WT GAIN ON DAY 30: 6%
HSV-2 (STRAIN G); EDU 1000 MG/KG/DAY
  MDD: 8.6
  % SURVIVORS: 33%
  %WT GAIN ON DAY 7: 3%
  %WT GAIN ON DAY 14: 13%
  %WT GAIN ON DAY 21: 34%
  %WT GAIN ON DAY 30: 43%

## Nc1nc(=O)n([C@@H]2O[C@H](CO)[C@@H](O)[C@@H]2F)cc1I [FIAC, 1-(2'-deoxy-2'-fluoro-beta-D-arabinofuranosyl)-5-iodocytosine]
[1]; woodchucks, previous results
  toxicity (previous results): lethal toxicity
physchem; aqueous hydrochloric acid
  solubility: ~250 mg/mL (≈ 674 mM)

## Nc1nc(=O)n([C@@H]2O[C@H](COP(=O)(O)OP(=O)(O)OP(=O)(O)O)[C@@H](O)[C@@H]2F)cc1I [FIACTP]
HBV DNA polymerase [3]
  nature of inhibition (Lineweaver-Burk plots): competitive
  relative efficiency as inhibitor of HBV DNA polymerase: most efficient inhibitor
WHV DNA polymerase; [4]
  IC50: 100 nM

## O=c1[nH]c(=O)n([C@@H]2O[C@H](CO)[C@@H](O)[C@@H]2F)cc1I [FIAU, 2′-fluoro-2′-deoxy-arabinosyl-5-iodouracil]
physchem
  solubility: increased many fold

## Cc1cn([C@@H]2O[C@H](COP(=O)(O)OP(=O)(O)OP(=O)(O)O)[C@@H](O)[C@@H]2F)c(=O)[nH]c1=O [FMAU-TP]
HBV DNA polymerase [3]
  IC50: 25 nM
WHV DNA polymerase
  IC50: 50 nM

## Nc1nc2c(ncn2COCCO)c(=O)[nH]1 [acyclovir]
[1]
  virus replication levels: diminished
  virus replication levels after cessation of treatment: rebounded to pretreatment levels

## Nc1ncnc2c1ncn2[C@@H]1O[C@H](COP(=O)(O)O)[C@@H](O)[C@@H]1O [ara-AMP]
[1]
  virus replication levels: diminished
  virus replication levels after cessation of treatment: rebounded to pretreatment levels
  WHV DNA polymerase levels: diminished
  WHV DNA polymerase levels after cessation of drug administration: rebounded to pretreatment levels

## Nc1ncnc2c1ncn2[C@@H]1O[C@H](COP(=O)(O)OP(=O)(O)OP(=O)(O)O)[C@@H](O)[C@@H]1O [ara-ATP]
HBV DNA polymerase [2]
  HBV DNA synthesis after addition of the normal substrate: increased the HBV DNA synthesis

## Nc1ccn([C@@H]2O[C@H](COP(=O)(O)OP(=O)(O)OP(=O)(O)O)[C@@H](O)[C@@H]2O)c(=O)n1 [ara-CTP]
HBV DNA polymerase [2]
  DNA synthesis with analog substituted for the natural substrate: no significant incorporation
  HBV DNA synthesis after addition of the normal substrate: increased the HBV DNA synthesis
HBV DNA polymerase [3]
  IC50: 1100 nM
  relative efficiency as inhibitor of HBV DNA polymerase: least efficient
WHV DNA polymerase; [4]
  IC50: 1200 nM

## Cc1cn([C@@H]2O[C@H](COP(=O)(O)OP(=O)(O)OP(=O)(O)O)[C@@H](O)[C@@H]2O)c(=O)[nH]c1=O [ara-TTP]
HBV DNA polymerase [2]
  DNA synthesis with analog substituted for the natural substrate: no significant DNA synthesis
HBV DNA polymerase [3]
  IC50: 300 nM
WHV DNA polymerase; [4]
  IC50: 400 nM
